“Also recorded” adds a separate entry of the source. Square brackets hold non-standard residues; d marks the D form. Peptide text beside a SMILES is read from it. NMeTrp(1-(4-Br-benzyl)) = CN[C@@H](Cc1cn(Cc2ccc(Br)cc2)c2ccccc12)C(=O)O; Butanoyl(2R-oxy,4-CN) = N#CCC[C@@H](O)C(=O)O; NMeL = CN[C@@H](CC(C)C)C(=O)O; NMeA = CN[C@@H](C)C(=O)O
Columns and labels:
SARS-CoV-2 [1] = assay type: cell-based; settings: Vero E6 cells
SIGMAR1 = settings: Extended Data Fig. 10b, cited from earlier work
SARS-CoV-2 [2] = assay type: cell-based
viral replication = settings: cited from earlier work
SARS-CoV-2 [3] = assay type: cell-based; remark: listed apart in the source
SIGMAR2/TMEM97 = settings: annotated activity, Extended Data Fig. 10b; cited from earlier work

SMILES | antiviral activity / viral infectivity (in words) (SARS-CoV-2 [1]) | other results
Fc1ccc(-n2cc(CCCCN3CCC4(CC3)OCc3ccccc34)c3ccccc32)cc1 [siramesine] | antiviral | 
Clc1ccc(C(OCCN2CCCCC2)c2ccccc2)cc1 (stereo not shown) [cloperastine] | antiviral activity | 
Cc1cc2c(s1)Nc1ccccc1N=C2N1CCN(C)CC1 [olanzapine] | not antiviral | Sigma receptor activity (in words) (SIGMAR1): little Sigma receptor activity; activity at SIGMAR1, reported (SIGMAR1; annotated activity): greater than 5 μM
CCN(CCO)CCCC(C)Nc1ccnc2cc(Cl)ccc12 (stereo not shown) [hydroxychloroquine] | effectively reducing viral infectivity | detection of the viral NP protein (in words) (SARS-CoV-2 [2]): decreased the detection of the viral NP protein
COc1ccc(CCN2CCC(Nc3nc4ccccc4n3Cc3ccc(F)cc3)CC2)cc1 [astemizole] |  | activity in viral replication assays reported by others (in words) (viral replication): active in viral replication assays
O=C(CCCN1CCC(O)(c2ccc(Cl)cc2)CC1)c1ccc(F)cc1 [haloperidol, Haloperidol] | effectively reducing viral infectivity; also recorded: antiviral activity | 
COc1cccc2c1CCCC2CCCN1CCN(C2CCCCC2)CC1 (stereo not shown) [PB28] | effectively reducing viral infectivity | detection of the viral NP protein (in words) (SARS-CoV-2 [2]): decreased the detection of the viral NP protein; times more potent than hydroxychloroquine (SARS-CoV-2 [3]): ~ 20 times
CC(=O)[C@H]1CC[C@H]2[C@@H]3CCC4=CC(=O)CC[C@]4(C)[C@H]3CC[C@]12C [progesterone] | antiviral | 
COc1cc2c(c(OC)n1)[C@]1(O)[C@H](O)[C@H](CN(C)C)[C@@H](c3ccccc3)[C@]1(c1ccc(C#N)cc1)O2 [zotatifin] | reduce viral infectivity in a concentration-dependent matter; also recorded: effectively reducing viral infectivity; also recorded: strong antiviral effect | detection of the viral NP protein (in words) (SARS-CoV-2 [2]): decreased the detection of the viral NP protein
Cc1cc(OCCN2CCOCC2)nn1-c1ccc2ccccc2c1 [E-52862] |  | binding at SIGMAR2/TMEM97, reported (SIGMAR2/TMEM97): greater than 1 μM
CC(C)C[C@@H]1NC(=O)[C@H](Cc2cn(Cc3ccc(Br)cc3)c3ccccc23)N(C)C(=O)[C@H](CC(C)C)NC(=O)[C@H](CC(C)C)N(C)C(=O)[C@H](CC(C)C)NC(=O)[C@@H](CCC#N)OC(=O)[C@H](C)N(C)C1=O [PS3061] (cyclo(L[NMeA][Butanoyl(2R-oxy,4-CN)]L[NMeL]L[NMeTrp(1-(4-Br-benzyl))])) | effectively reducing viral infectivity; also recorded: blocked SARS-CoV-2 replication | 
COc1ccc(CCN(C)CCCC(C#N)(c2ccc(OC)c(OC)c2)C(C)C)cc1OC (stereo not shown) [verapamil] |  | activity in viral replication assays reported by others (in words) (viral replication): active in viral replication assays
COc1ccc2c(c1)[C@]13CCCC[C@@H]1[C@H](C2)N(C)CC3 [dextromethorphan] | pro-viral activity | viral titers (TCID50), effect in words (SARS-CoV-2 [3]): increases viral titers
CCCCc1oc2ccccc2c1C(=O)c1cc(I)c(OCCN(CC)CC)c(I)c1 [amiodarone] |  | activity in viral replication assays reported by others (in words) (viral replication): active in viral replication assays
CCCN1CCC=C(c2cc(-c3ccc(C)cc3)no2)C1.O=C(O)C(=O)O [PD-144418] | effectively reducing viral infectivity | 

— article PMC7431030 (Nature, 2020)
